{"source": "patent US9339478B2", "about": "“Pharmaceutical formulation” (RECKITT BENCKISER LLC, priority 2011, dated 2016)", "origin": "cited, not measured here", "details": "per dose, typical"}
{"smiles": "COc1ccc2c3c1O[C@H]1[C@@H](O)C=C[C@H]4[C@@H](C2)N(C)CC[C@@]341", "note": "[codeine]", "values": [{"measurement": "period of therapeutic effect / relief provided by a dose", "result": "2.5 to 3", "unit": "h"}]}
